Assay results reported in patent US12310969B2, “Antithrombotic compositions and methods for using same” (UNIVERSITY OF NORTH TEXAS, priority 2021, dated 2025).

Tests used:
zebrafish larvae = assay: Laser-induced venous thrombosis, time to occlusion (TTO) of the caudal vein; type: in vivo; conditions: 5 dpf larvae, 2 hours
Experimental: (§1) UNC6852 (MedChem Express, Monmouth Junction, NJ), in 10% DMSO in saline were prepared at four different concentrations (0.075 mM, 0.15 mM, 0.3 mM and 0.6 mM). Eight nl of each of these solutions was injected into the 5 dpf larvae and incubated for 2 hours. For controls, 10% DMSO in saline was injected. For adult fish injections, 5 μl of 0.6 mM UNC6852 was injected intravenously and incubated for 6 hours.
For laser-induced venous thrombosis, 5 dpf larvae were transferred into a 1.5 ml Eppendorf tube containing 0.5 ml E3 medium followed by the addition of 10 μl of 10 mM MS222. After 2 minutes of anesthesia, 0.5 ml of 1.6% low melting agarose at 37° C. was added to the Eppendorf tube, and the contents were mixed gently by pipetting up and down using a transfer pipette. […] The slide with the larvae was focused with a 20× objective of the Nikon OPTIPHOT™ fluorescence microscope. The pulsed nitrogen laser with a wavelength of 445 nm, routed through the coumarin-440 dye (Micro Point Laser, Stanford Research Systems Inc., Sunnyvale, CA), was delivered at 10 hits per cycle through the fluorescence port to hit the mid-region in the caudal vein located in the 5th somite posterior to the anal pore.^22 TTO of the vessel was measured as the time taken to occlude the vessel from the time the laser hits the vessel until the vessel completely occludes.

tfpia mRNA = assay: qRT-PCR of tfpia gene expression in liver and spleen of adult zebrafish; type: in vivo; conditions: adult fish, 5 μl of 0.6 mM injected intravenously, 6 hours post-injection, vs wild-type control
Experimental: as §1
Adult zebrafish were first anesthetized using 1 mM Tricaine in E3 medium. After 2 minutes, once the zebrafish flips on its side, it was removed from the medium, and an incision was made in the ventral surface from the anal pore up to the gills using a pair of scissors. The visible liver and spleen were retrieved using a pair of forceps. […]
To 1 μl of the liver and spleen RNA (1 μg/μl), 4 μl of QSCRIPT™ (gScript™) cDNA SUPERMIX™ (Quanta Bio, Beverly, MA) and 15 μl of nuclease-free water were added. […] The ΔCt values for WT samples were calculated as a difference between Ct values of β-actin and tfpia. The average ΔCt value for WT was then calculated. […] Similarly, in the knockdown samples, from each ΔCt value, the average ΔCt value of the WT was subtracted, and the resulting ΔΔCt value was calculated, followed by the calculation of fold change.

## Cc1ncsc1-c1ccc(CNC(=O)[C@@H]2C[C@@H](O)CN2C(=O)[C@@H](NC(=O)CCCNC(=O)c2ccc(-c3cnc(NCc4ccco4)n4cnnc34)cc2)C(C)(C)C)cc1 [UNC6852]
Zebrafish larvae; 8 nl injected intravenously at 0.075, 0.15, 0.3 and 0.6 mM, compared to control larvae (10% DMSO in saline)
  time to occlusion (TTO) of the caudal vein after laser injury: dose-dependent prolongation of TTO
Zebrafish larvae; 8 nl injected intravenously, 4 concentrations tested (0.075-0.6 mM)
  concentration giving maximal prolongation of TTO: 0.6 mM
Tfpia mRNA
  tfpia mRNA levels (fold change of tfpia gene expression in liver and spleen): increased tfpia mRNA levels
